Results from article PMC3997483, “Aminostyrylbenzofuran Directly Reduces Oligomeric Amyloid-β and Reverses Cognitive Deficits in Alzheimer Transgenic Mice” (PLoS ONE, 2014).

System: SD rats
Assay: 2-week repeated oral dose toxicity study
Format: in vivo
Settings: for Abnormal gross findings of necropsy (changed animals / total) / Basophils / Body Weight (at necropsy) / Brain weight / CH / CHCM / Eosinophils / HDW / Heart weight / Hematocrit / Hemoglobin / LUC / Left adrenal weight / Left kidney weight / Left testis weight / Liver weight / Lung weight / Lympocytes / MCH / MCHC / MCV / MPV / Monocytes / Mortality (dead animals / total number of animals) / Neutrophils / Platelet / RBC / RDW / Rate body weight / brain / Rate body weight / heart / Rate body weight / left adrenal / Rate body weight / left kidney / Rate body weight / left testis / Rate body weight / liver / Rate body weight / lung / Rate body weight / right adrenal / Rate body weight / right kidney / Rate body weight / right testis / Rate body weight / spleen / Rate body weight / thymus / Retic / Right adrenal weight / Right kidney weight / Right testis weight / Spleen weight / Symptomatic signs / Thymus weight / WBC: 2 weeks
Experimental: KMS88009 was orally administered once a day by gavage for 14 consecutive days at dose level of 0 (vehicle), 100, 300 and 1,000 mg/kg (n = 5 per group). […] Organs were collected at necropsy; adrenal, kidney, thymus, spleen, heart, lung, liver, testis and brain. The absolute organ weights were measured and the organs-to-body weight ratios were calculated. Blood samples for hematological evaluation were collected from vein of animals under ether anesthesia. Food was withheld overnight before necropsy and blood collections. EDTA was used as an anticoagulant for hematology samples. White blood cell (WBC), red blood cell (RBC), hemoglobin concentration (HGB), hematocrit (HCT), mean corpuscular volume (MCV), mean corpuscular hemoglobin (MCH), mean corpuscular hemoglobin concentration (MCHC), cell hemoglobin concentration mean (CHCM), cell hemoglobin (CH), red cell distribution width (RDW), hemoglobin distribution width (HDW), platelet count (PLT), mean platelet volume (MPV) and reticulocyte were measured by a hematological autoanalyzer (ADVIA 120, Bayer, USA). To get the serum for biochemical analyses, blood samples in a separation tube were centrifuged at 4,000 rpm for 10 min on the day of necropsy. The serum was kept frozen at -70°C until analysis. Sodium citrate was used as an anticoagulant for biochemical analyses. Serum biochemical parameters including aspartate aminotransferase (AST), alanine aminotransferase (ALT), alkaline phosphatase (ALP), total bilirubin (T-Bil), albumin, total protein (TP), albumin/globulin ratio (A/G ratio), glucose, total cholesterol (CHO), triglyceride (TG), lactate dehydrogenase (LDH), creatine kinase (CK), blood urea nitrogen (BUN), creatinine (CRE), blood urea nitrogen/creatinine ratio (B/C ratio), Na^+, K^+ and Cl^- were evaluated by an autoanalyzer (Shimadzu CL-7200, Shimadzu Co., Japan).
All data for single and 2-week repeated oral dose toxicity studies were expressed as the mean ± SD Difference between control and treated groups were evaluated with one-way analysis of variance (ANOVA) followed by Dunnett's test. Value P<0.05 was taken as being statistically significant. Statistical analyses were performed using GraphPad Prism software (USA).

## COc1ccc2cc(C=Cc3ccc(N(C)C)cc3)oc2c1 [KMS88009, 6-methoxy-2-(4-dimethylaminostyryl) benzofuran]
SD rats, 2-week repeated oral administration
  no-observed-adverse-effect-level: over 1,000 mg/kg
Rats PO 100 mg/kg/day
  Abnormal gross findings of necropsy (changed animals / total): 0 / 5
  Basophils: 0.02 ± 0.01 x10^3/μL
  Body Weight (at necropsy): 316.188 ± 16.093 g
  Brain weight: 1.948 ± 0.032 g
  CH: 20.3 ± 0.4 pg
  CHCM: 34.0 ± 0.4 g/dL
  Eosinophils: 0.07 ± 0.08 x10^3/μL
  HDW: 2.22 ± 0.08 g/dL
  Heart weight: 1.067 ± 0.098 g
  Hematocrit: 43.2 ± 2.6%
  Hemoglobin: 14.3 ± 1.0 g/dL
  LUC: 0.03 ± 0.02 x10^3/μL
  Left adrenal weight: 0.027 ± 0.005 g
  Left kidney weight: 1.279 ± 0.083 g
  Left testis weight: 1.440 ± 0.114 g
  Liver weight: 10.988 ± 0.881 g
  Lung weight: 1.212 ± 0.077 g
  Lympocytes: 6.64 ± 1.79 x10^3/μL
  MCH: 19.8 ± 0.5 pg
  MCHC: 33.1 ± 0.5 g/dL
  MCV: 59.7 ± 1.3 fL
  MPV: 7.66 ± 0.2 fL
  Monocytes: 0.12 ± 0.03 x10^3/μL
  Mortality (dead animals / total number of animals): 0 / 5
  Neutrophils: 1.74 ± 0.68 x10^3/μL
  Platelet: 1283 ± 239 x10^3/μL
  RBC: 7.25 ± 0.46 x10^6/μL
  RDW: 12.0 ± 0.3%
  Rate body weight / brain: 0.617 ± 0.026%
  Rate body weight / heart: 0.337 ± 0.024%
  Rate body weight / left adrenal: 0.009 ± 0.002%
  Rate body weight / left kidney: 0.404 ± 0.009%
  Rate body weight / left testis: 0.456 ± 0.036%
  Rate body weight / liver: 3.473 ± 0.154%
  Rate body weight / lung: 0.384 ± 0.031%
  Rate body weight / right adrenal: 0.008 ± 0.001%
  Rate body weight / right kidney: 0.414 ± 0.026%
  Rate body weight / right testis: 0.459 ± 0.042%
  Rate body weight / spleen: 0.230 ± 0.048%
  Rate body weight / thymus: 0.205 ± 0.022%
  Retic: 324.8 ± 18.9 ^* x10^3/μL
  Right adrenal weight: 0.025 ± 0.002 g
  Right kidney weight: 1.310 ± 0.101 g
  Right testis weight: 1.450 ± 0.133 g
  Spleen weight: 0.731 ± 0.188 g
  Symptomatic signs: -
  Thymus weight: 0.649 ± 0.073 g
  WBC: 8.62 ± 1.70 x10^3/μL
Rats PO 100 mg/kg/day, day 1
  Body weight: 227.6 ± 7.8 g
Rats PO 100 mg/kg/day, day 4
  Body weight: 253.1 ± 7.0 g
Rats PO 100 mg/kg/day, day 8
  Body weight: 297.2 ± 9.3 g
Rats PO 100 mg/kg/day, day 11
  Body weight: 321.2 ± 13.1 g
Rats PO 100 mg/kg/day, day 14
  Body weight: 344.4 ± 17.1 g
Rats PO 300 mg/kg/day
  Abnormal gross findings of necropsy (changed animals / total): 0 / 5
  Basophils: 0.01 ± 0.01 x10^3/μL
  Body Weight (at necropsy): 312.382 ± 14.169 g
  Brain weight: 1.680 ± 0.211 g
  CH: 20.4 ± 0.7 pg
  CHCM: 34.2 ± 0.3 g/dL
  Eosinophils: 0.03 ± 0.01 x10^3/μL
  HDW: 2.28 ± 0.12 g/dL
  Heart weight: 1.002 ± 0.038 g
  Hematocrit: 41.4 ± 1.9%
  Hemoglobin: 13.9 ± 0.7 g/dL
  LUC: 0.02 ± 0.01 x10^3/μL
  Left adrenal weight: 0.026 ± 0.004 g
  Left kidney weight: 1.237 ± 0.082 g
  Left testis weight: 1.515 ± 0.189 g
  Liver weight: 10.601 ± 0.687 g
  Lung weight: 1.214 ± 0.128 g
  Lympocytes: 3.98 ± 0.96 x10^3/μL
  MCH: 20.0 ± 0.6 pg
  MCHC: 33.4 ± 0.4 g/dL
  MCV: 59.7 ± 1.5 fL
  MPV: 7.84 ± 0.4 fL
  Monocytes: 0.08 ± 0.02 x10^3/μL
  Mortality (dead animals / total number of animals): 0 / 5
  Neutrophils: 0.84 ± 0.21 x10^3/μL
  Platelet: 1309 ± 50 x10^3/μL
  RBC: 6.93 ± 0.26 x10^6/μL
  RDW: 11.9 ± 0.4%
  Rate body weight / brain: 0.537 ± 0.059%
  Rate body weight / heart: 0.321 ± 0.011%
  Rate body weight / left adrenal: 0.008 ± 0.001%
  Rate body weight / left kidney: 0.396 ± 0.020%
  Rate body weight / left testis: 0.487 ± 0.075%
  Rate body weight / liver: 3.393 ± 0.133%
  Rate body weight / lung: 0.389 ± 0.037%
  Rate body weight / right adrenal: 0.008 ± 0.001%
  Rate body weight / right kidney: 0.406 ± 0.008%
  Rate body weight / right testis: 0.455 ± 0.023%
  Rate body weight / spleen: 0.201 ± 0.037%
  Rate body weight / thymus: 0.196 ± 0.036%
  Retic: 277.8 ± 39.6 x10^3/μL
  Right adrenal weight: 0.025 ± 0.004 g
  Right kidney weight: 1.266 ± 0.035 g
  Right testis weight: 1.420 ± 0.086 g
  Spleen weight: 0.629 ± 0.130 g
  Symptomatic signs: -
  Thymus weight: 0.613 ± 0.115 g
  WBC: 4.95 ± 1.05 x10^3/μL
Rats PO 300 mg/kg/day, day 1
  Body weight: 227.8 ± 7.1 g
Rats PO 300 mg/kg/day, day 4
  Body weight: 250.5 ± 9.9 g
Rats PO 300 mg/kg/day, day 8
  Body weight: 294.2 ± 14.6 g
